In paper PMC5309217, “Divergent Soybean Calmodulins Respond Similarly to Calcium Transients: Insight into Differential Target Regulation” (Frontiers in Plant Science, 2017):

Tests used:
[1] = Steady-state Ca^2+ sensitivity of CaMs in the presence of NADK peptide; format: binding; details: vs MLCK peptide
Method: (§1) The steady-state fluorescence measurements were performed using a Perkin-Elmer LS55 spectrofluorimeter at 20°C. The titration buffer consisted of 200 mM MOPS, 150 mM KCl, 2 mM EGTA (pH 7.0) ([Tikunova et al., 2002], [2010]; [Tikunova and Davis, 2004]). […] The free Ca^2+ concentration was calculated using the EGCA02 program by [Robertson and Potter (1984)]. The free Mg^2+ concentration was calculated using the MaxChelator program ([Bers et al., 2010]). Each reported Kd represents an average of at least three successive titrations ± standard error and fit with the Hill equation as previously described ([George et al., 1996]).
(§2) The Ca^2+ titrations in the presence of Mg^2+ were performed as described above with the addition of 3 mM Mg^2+ to the titration buffer.

[2] = biological target: T1, CaM binding domain of Arabidopsis thaliana NADK2 (Arabidopsis thaliana, UniProt Q9C5W3); test: NADK peptide affinity for CaMs (intrinsic Trp of the peptide)
T1 construct: purchased Ohio Peptide LLC (Powell, OH); host or cells: chemical synthesis
Method: as §1, §2

Row | Substance | effect at sensitizing the CaMs to Ca^2+ compared to MLCK [1] | binding of NADK peptide to CaMs in the absence of Ca^2+ ([2]; absence of Ca^2+, data not shown) | affinity of NADK peptide for Ca^2+-saturated CaMs compared to MLCK ([2]; vs MLCK peptide) | Kd ([2]; read-out: NADK peptide affinity (Kd) for Ca^2+-saturated CaM, WT CaM titrated into 1 μM NADK peptide, 100 μM Ca^2+ (pCa = 4), 200 mM MOPS, 150 mM KCl, 2 mM EGTA, pH 7.0, 20°C, mean ± SE of at least three titrations) [nM]
1 | IYVHSKEGVWRTSAMVSRWK [NADK peptide] | substantially weaker effect | did not bind | weaker affinity | –
2 | sCaM4: soybean CaM isoform 4; stress-induced CaM found in the soybean | – | – | – | 760 ± 70
